Tested on: Monocots
Experiment: Herbicidal activity, preemergence, monocot weeds (Table II)
Format: in vivo
Conditions: pre-emergence, 336 h, 2 lb./A., about 2 weeks, read-out: % control (percent of plants killed)
Experimental: (§1) Using the procedure described below, diphenyl ethers were evaluated for control of the following weeds: […]
(§2) barnyardgrass (Echinochloa crusgalli) crabgrass (Digitaria spp.) nutsedge (Cyperus esculentus)
(§3) At 2 and 4 pounds per acre:
(§4) **Bermudagrass (Cynodon dactylon)
(§5) *downy brome (Bromus tectorum) foxtail (Setaria faberii)
(§6) Johnsongrass (Sorghum halepense) […]
(§7) quackgrass (Agropyron repens)
(§8) *ryegrass (Lolium perenne)
(§9) *yellow millet (Panicum miliaceum)
(§10) The following test procedure is employed. Seeds of selected crops and weeds are planted in soil in flats. For preemergence tests, the flats are treated with the test compound immediately after the planting. For postemergence tests, the seeds are allowed to germinate, and after 2 weeks the flats are treated with the test compound. The compound to be evaluated is dissolved in acetone, diluted with water, and sprayed over the flats using a carrier volume equivalent to 50 gallons per acre at the rate of application (pounds per acre, lb/A.) specified in the tables. About 2 weeks after the application of the test compound, the state of growth of the plants is observed and the phytotoxic effect of the compound is evaluated. Table II gives the average percent control achieved by the test compounds in terms of the percent of the plants which are killed by the compounds.

| Compound | pest or weed control at 2241.7 g/ha [%] |
| --- | --- |
| CN(C)CCOc1cc(Oc2ccc(C(F)(F)F)cc2Cl)ccc1[N+](=O)[O-] [Example 17, 2-chloro-α,α,α-trifluoro-p-tolyl-3-(2-dimethylaminoethoxy)-4-nitrophenyl ether] | 20 |
| CCSC(=O)N(C(=O)SCC)c1cc(Oc2ccc(C(F)(F)F)cc2Cl)ccc1[N+](=O)[O-] [Example 46] | 34 |
| CN(CCO)c1cc(Oc2ccc(C(F)(F)F)cc2Cl)ccc1[N+](=O)[O-] [Example 43] | 99 |
| O=C(CCl)Nc1cc(Oc2ccc(C(F)(F)F)cc2Cl)ccc1[N+](=O)[O-] [Example 35, 2-chloro-α,α,α-trifluoro-p-tolyl-3-chloroacetamido-4-nitrophenyl ether] | 60 |
| C#CCOc1cc(Oc2ccc(C(F)(F)F)cc2Cl)ccc1[N+](=O)[O-] [Example 13] | 78 |

Same assay, conditions: pre-emergence, 336 h, 4 lb./A., about 2 weeks, read-out: % control (percent of plants killed)

| Compound | pest or weed control at 4483.4 g/ha [%] |
| --- | --- |
| CN(C)CCOc1cc(Oc2ccc(C(F)(F)F)cc2Cl)ccc1[N+](=O)[O-] [Example 17, 2-chloro-α,α,α-trifluoro-p-tolyl-3-(2-dimethylaminoethoxy)-4-nitrophenyl ether] | 51 |
| CCSC(=O)N(C(=O)SCC)c1cc(Oc2ccc(C(F)(F)F)cc2Cl)ccc1[N+](=O)[O-] [Example 46] | 0 |
| CN(CCO)c1cc(Oc2ccc(C(F)(F)F)cc2Cl)ccc1[N+](=O)[O-] [Example 43] | 0 |
| O=C(CCl)Nc1cc(Oc2ccc(C(F)(F)F)cc2Cl)ccc1[N+](=O)[O-] [Example 35, 2-chloro-α,α,α-trifluoro-p-tolyl-3-chloroacetamido-4-nitrophenyl ether] | 40 |
| C#CCOc1cc(Oc2ccc(C(F)(F)F)cc2Cl)ccc1[N+](=O)[O-] [Example 13] | 76 |

Tested on: Dicots
Experiment: Herbicidal activity, preemergence, dicot weeds (Table II)
Format: in vivo
Conditions: pre-emergence, 336 h, 2 lb./A., about 2 weeks, read-out: % control (percent of plants killed)
Experimental: as §1
(§11) bindweed (Convolvulus arvensis) curly dock (Remex crispus) velvetleaf (Abutilon theophrasti) wild mustard (Brassica haber)
(§12) At 2 and 4 pounds per acre: […]
(§13) cocklebur (Xanthium pensylvanicum)
(§14) **coffeeweed (Sesbania macrocarpa)
(§15) *curly dock (Rumex crispus)
(§16) *lambsquarters (Chenopodium album) morningglory (Ipomoea purpurea)
(§17) *pigweed (Amaranthus retroflexus)
(§18) **ragweed (Ambrosia artemisiifolia)
(§19) *smartweed (Polygonum pensylvanicum)
(§20) **tomato (Lycopersicon esculentum)
(§21) *wild carrot (Daucus carota)
(§22) *wild mustard (Brassica haber)
as §10

| Compound | pest or weed control at 2241.7 g/ha [%] |
| --- | --- |
| CN(C)CCOc1cc(Oc2ccc(C(F)(F)F)cc2Cl)ccc1[N+](=O)[O-] [Example 17, 2-chloro-α,α,α-trifluoro-p-tolyl-3-(2-dimethylaminoethoxy)-4-nitrophenyl ether] | 31 |
| CCSC(=O)N(C(=O)SCC)c1cc(Oc2ccc(C(F)(F)F)cc2Cl)ccc1[N+](=O)[O-] [Example 46] | 87 |
| CN(CCO)c1cc(Oc2ccc(C(F)(F)F)cc2Cl)ccc1[N+](=O)[O-] [Example 43] | 100 |
| O=C(CCl)Nc1cc(Oc2ccc(C(F)(F)F)cc2Cl)ccc1[N+](=O)[O-] [Example 35, 2-chloro-α,α,α-trifluoro-p-tolyl-3-chloroacetamido-4-nitrophenyl ether] | 72 |
| C#CCOc1cc(Oc2ccc(C(F)(F)F)cc2Cl)ccc1[N+](=O)[O-] [Example 13] | 72 |

Same assay, conditions: pre-emergence, 336 h, 4 lb./A., about 2 weeks, read-out: % control (percent of plants killed)

| Compound | pest or weed control at 4483.4 g/ha [%] |
| --- | --- |
| CN(C)CCOc1cc(Oc2ccc(C(F)(F)F)cc2Cl)ccc1[N+](=O)[O-] [Example 17, 2-chloro-α,α,α-trifluoro-p-tolyl-3-(2-dimethylaminoethoxy)-4-nitrophenyl ether] | 84 |
| CCSC(=O)N(C(=O)SCC)c1cc(Oc2ccc(C(F)(F)F)cc2Cl)ccc1[N+](=O)[O-] [Example 46] | 20 |
| CN(CCO)c1cc(Oc2ccc(C(F)(F)F)cc2Cl)ccc1[N+](=O)[O-] [Example 43] | 48 |
| O=C(CCl)Nc1cc(Oc2ccc(C(F)(F)F)cc2Cl)ccc1[N+](=O)[O-] [Example 35, 2-chloro-α,α,α-trifluoro-p-tolyl-3-chloroacetamido-4-nitrophenyl ether] | 40 |
| C#CCOc1cc(Oc2ccc(C(F)(F)F)cc2Cl)ccc1[N+](=O)[O-] [Example 13] | 90 |

Tested on: Monocots
Experiment: Herbicidal activity, postemergence, monocot weeds (Table II)
Format: in vivo
Conditions: post-emergence, 336 h, 2 lb./A., about 2 weeks, read-out: % control (percent of plants killed)
Experimental: as §1, §2, §3, §4, §5, §6, §7, §8, §9, §10

| Compound | pest or weed control at 2241.7 g/ha [%] |
| --- | --- |
| CN(C)CCOc1cc(Oc2ccc(C(F)(F)F)cc2Cl)ccc1[N+](=O)[O-] [Example 17, 2-chloro-α,α,α-trifluoro-p-tolyl-3-(2-dimethylaminoethoxy)-4-nitrophenyl ether] | 39 |
| CCSC(=O)N(C(=O)SCC)c1cc(Oc2ccc(C(F)(F)F)cc2Cl)ccc1[N+](=O)[O-] [Example 46] | 0 |
| CN(CCO)c1cc(Oc2ccc(C(F)(F)F)cc2Cl)ccc1[N+](=O)[O-] [Example 43] | 61 |
| O=C(CCl)Nc1cc(Oc2ccc(C(F)(F)F)cc2Cl)ccc1[N+](=O)[O-] [Example 35, 2-chloro-α,α,α-trifluoro-p-tolyl-3-chloroacetamido-4-nitrophenyl ether] | 63 |
| C#CCOc1cc(Oc2ccc(C(F)(F)F)cc2Cl)ccc1[N+](=O)[O-] [Example 13] | 100 |

Same assay, conditions: post-emergence, 336 h, 4 lb./A., about 2 weeks, read-out: % control (percent of plants killed)

| Compound | pest or weed control at 4483.4 g/ha [%] |
| --- | --- |
| CN(C)CCOc1cc(Oc2ccc(C(F)(F)F)cc2Cl)ccc1[N+](=O)[O-] [Example 17, 2-chloro-α,α,α-trifluoro-p-tolyl-3-(2-dimethylaminoethoxy)-4-nitrophenyl ether] | 45 |
| CCSC(=O)N(C(=O)SCC)c1cc(Oc2ccc(C(F)(F)F)cc2Cl)ccc1[N+](=O)[O-] [Example 46] | 0 |
| CN(CCO)c1cc(Oc2ccc(C(F)(F)F)cc2Cl)ccc1[N+](=O)[O-] [Example 43] | 2 |
| O=C(CCl)Nc1cc(Oc2ccc(C(F)(F)F)cc2Cl)ccc1[N+](=O)[O-] [Example 35, 2-chloro-α,α,α-trifluoro-p-tolyl-3-chloroacetamido-4-nitrophenyl ether] | 45 |
| C#CCOc1cc(Oc2ccc(C(F)(F)F)cc2Cl)ccc1[N+](=O)[O-] [Example 13] | 77 |

Tested on: Dicots
Experiment: Herbicidal activity, postemergence, dicot weeds (Table II)
Format: in vivo
Conditions: post-emergence, 336 h, 2 lb./A., about 2 weeks, read-out: % control (percent of plants killed)
Experimental: as §1, §11, §12, §13, §14, §15, §16, §17, §18, §19, §20, §21, §22, §10

| Compound | pest or weed control at 2241.7 g/ha [%] |
| --- | --- |
| CN(C)CCOc1cc(Oc2ccc(C(F)(F)F)cc2Cl)ccc1[N+](=O)[O-] [Example 17, 2-chloro-α,α,α-trifluoro-p-tolyl-3-(2-dimethylaminoethoxy)-4-nitrophenyl ether] | 98 |
| CCSC(=O)N(C(=O)SCC)c1cc(Oc2ccc(C(F)(F)F)cc2Cl)ccc1[N+](=O)[O-] [Example 46] | 4 |
| CN(CCO)c1cc(Oc2ccc(C(F)(F)F)cc2Cl)ccc1[N+](=O)[O-] [Example 43] | 80 |
| O=C(CCl)Nc1cc(Oc2ccc(C(F)(F)F)cc2Cl)ccc1[N+](=O)[O-] [Example 35, 2-chloro-α,α,α-trifluoro-p-tolyl-3-chloroacetamido-4-nitrophenyl ether] | 80 |
| C#CCOc1cc(Oc2ccc(C(F)(F)F)cc2Cl)ccc1[N+](=O)[O-] [Example 13] | 100 |

Same assay, conditions: post-emergence, 336 h, 4 lb./A., about 2 weeks, read-out: % control (percent of plants killed)

| Compound | pest or weed control at 4483.4 g/ha [%] |
| --- | --- |
| CN(C)CCOc1cc(Oc2ccc(C(F)(F)F)cc2Cl)ccc1[N+](=O)[O-] [Example 17, 2-chloro-α,α,α-trifluoro-p-tolyl-3-(2-dimethylaminoethoxy)-4-nitrophenyl ether] | 89 |
| CCSC(=O)N(C(=O)SCC)c1cc(Oc2ccc(C(F)(F)F)cc2Cl)ccc1[N+](=O)[O-] [Example 46] | 30 |
| CN(CCO)c1cc(Oc2ccc(C(F)(F)F)cc2Cl)ccc1[N+](=O)[O-] [Example 43] | 47 |
| O=C(CCl)Nc1cc(Oc2ccc(C(F)(F)F)cc2Cl)ccc1[N+](=O)[O-] [Example 35, 2-chloro-α,α,α-trifluoro-p-tolyl-3-chloroacetamido-4-nitrophenyl ether] | 98 |
| C#CCOc1cc(Oc2ccc(C(F)(F)F)cc2Cl)ccc1[N+](=O)[O-] [Example 13] | 98 |

From patent publication USRE31731E, “Herbicidal 4-trifluoromethyl-4-nitrodiphenyl ethers” (priority 1978, dated 1984)
